Here are results for 3 compounds from ChEMBL document CHEMBL4699443, “Position of lipidation influences anticancer activity of Smac analogs” (Bioorg Med Chem Lett, 2019).

The structures appear in SMILES notation. Starred links: 1 amine or outer side, 2 acyl side, 3 side chain; linkers in the order of their positions; H or OH if unused. Non-standard residues stand in square brackets, D forms with d. Residues, ends and D or L forms follow the SMILES beside them. Pro(cis-4-OPh) = O=C(O)[C@@H]1C[C@H](Oc2ccccc2)CN1; Bip = N[C@@H](Cc1ccc(-c2ccccc2)cc1)C(=O)O; Cysteamide = C(CS[*:3])N[*:1]; Tle = CC(C)(C)[C@H](N)C(=O)O; NMeA = CN[C@@H](C)C(=O)O

What all share (type): functional, cell-based
Experiment [1] is described as follows: Antiproliferative activity against human BTTR cells assessed as growth inhibition after 48 hrs by PrestoBlue dye based fluorescence assay.
Experiment [2] concerns HCC1954. Kind of experiment: Antiproliferative activity against human HCC1954 cells assessed as growth inhibition after 48 hrs by PrestoBlue dye based fluorescence assay. The note with it: HCC1954, 48 h.
The test system of experiment [3] is MCF7. Kind of experiment: Antiproliferative activity against human MCF7 cells assessed as growth inhibition after 48 hrs by PrestoBlue dye based fluorescence assay. The note with it: MCF7, 48 h.
Experiment [4] relates to MDA-MB-231. In words: Antiproliferative activity against human MDA-MB-231 cells assessed as growth inhibition after 48 hrs by PrestoBlue dye based fluorescence assay. The note with it: MDA-MB-231, 48 h.
The test system of experiment [5] is MOLT-4. Kind of experiment: Antiproliferative activity against human MOLT-4 cells assessed as growth inhibition after 48 hrs by PrestoBlue dye based fluorescence assay. The conditions noted are these: MOLT-4, 48 h.
For experiment [6], the system named is NALM-6. Kind of experiment: Antiproliferative activity against human NALM6 cells assessed as growth inhibition after 48 hrs by PrestoBlue dye based fluorescence assay. The note with it: NALM-6, 48 h.
Experiment [7] in a line: Antiproliferative activity against human CEM-R cells assessed as growth inhibition after 48 hrs by PrestoBlue dye based fluorescence assay.
Experiment [8] can be described thus: Antiproliferative activity against human M249 cells assessed as growth inhibition after 48 hrs by PrestoBlue dye based fluorescence assay. The conditions noted are these: M249, 48 h.
For experiment [9], the system named is SK-MEL-28. In words: Antiproliferative activity against human SK-MEL-28 cells assessed as growth inhibition after 48 hrs by PrestoBlue dye based fluorescence assay. The note with it: SK-MEL-28, 48 h.
The subject of experiment [10] is BXPC-3. In words: Antiproliferative activity against human BxPC3 cells assessed as growth inhibition after 48 hrs by PrestoBlue dye based fluorescence assay. The note with it: BXPC-3, 48 h.
Experiment [11] is described as follows: Antiproliferative activity against human COLO357/FG cells assessed as growth inhibition after 48 hrs by PrestoBlue dye based fluorescence assay. The note with it: COLO 357/FG.
The subject of experiment [12] is DU-145. In words: Antiproliferative activity against human DU145 cells assessed as growth inhibition after 48 hrs by PrestoBlue dye based fluorescence assay. The conditions noted are these: DU-145, 48 h.
Experiment [13] relates to VCaP. In words: Antiproliferative activity against human VCap cells assessed as growth inhibition after 48 hrs by PrestoBlue dye based fluorescence assay.
For experiment [14], the system named is SW480. In words: Antiproliferative activity against human SW480 cells assessed as growth inhibition after 48 hrs by PrestoBlue dye based fluorescence assay. The conditions noted are these: SW480, 48 h.
Experiment [15] deals with T84. In words: Antiproliferative activity against human T84 cells assessed as growth inhibition after 48 hrs by PrestoBlue dye based fluorescence assay. The note with it: T84, 48 h.
The subject of experiment [16] is FaDu. Kind of experiment: Antiproliferative activity against human FADU cells assessed as growth inhibition after 48 hrs by PrestoBlue dye based fluorescence assay.
Experiment [17] can be described thus: Antiproliferative activity against human UM-SCC-5 cells assessed as growth inhibition after 48 hrs by PrestoBlue dye based fluorescence assay. The conditions noted are these: UM-SCC-5, 48 h.
Experiment [18] in a line: Antiproliferative activity against human UM-SCC-6 cells assessed as growth inhibition after 48 hrs by PrestoBlue dye based fluorescence assay. The conditions noted are these: UM-SCC-6, 48 h.
For experiment [19], the system named is T47D. In words: Antiproliferative activity against human T47D cells assessed as growth inhibition after 48 hrs by PrestoBlue dye based fluorescence assay.
Experiment [20] relates to HepG2. In words: Antiproliferative activity against human HepG2 cells assessed as growth inhibition after 48 hrs by PrestoBlue dye based fluorescence assay. The note with it: HepG2, 48 h.

In general, EC50 refers to the concentration that produces a half-maximal response. For `CN[C@@H](C)C(=O)N[C@H](C(=O)N1C[C@@H](Oc2ccccc2)C[C@H]1C(=O)N[C@@H](Cc1ccc(-c2ccccc2)cc1)C(=O)NCCS)C(C)(C)C` (H-[NMeA][Tle][Pro(cis-4-OPh)][Bip]-Cysteamide), the EC50 in experiment [1] turned out to be 9 µM; in experiment [2] it was 3.9 µM; in [3], 10.2 µM; in experiment [4], 6 µM; in [5], 2.8 µM; in experiment [6] it was 5.3 µM. The EC50 in experiment [7] was 2.9 µM; in experiment [8] it was 6.2 µM; in experiment [9] it was 6.1 µM; in experiment [10] it was 4.1 µM; in [11], 8 µM; in [12], 6.2 µM. In addition, the EC50 in experiment [13] amounted to 7 µM; in experiment [14] it was 9.2 µM; in experiment [15] it was 6.2 µM; in experiment [16], 3.9 µM; in experiment [17] it was 5.9 µM; in experiment [18], 6 µM.

Regarding `CCCCCCCCCCCCCCCc1cccc(O[C@H]2C[C@@H](C(=O)NCC(c3ccccc3)c3ccccc3)N(C(=O)[C@@H](NC(=O)[C@H](C)NC)C(C)(C)C)C2)c1`, the EC50 in experiment [19] was 9 µM; in [20], 5.4 µM.

As to `CCCCCCCCCCCCCCCCS[C@H]1C[C@@H](C(=O)NCC(c2ccccc2)c2ccccc2)N(C(=O)[C@@H](NC(=O)[C@H](C)NC)C(C)(C)C)C1`, the EC50 in [2] amounted to 17.5 µM; in [13], 8.9 µM.
